Measured values: ChEMBL document CHEMBL1649312, “Absence of association between piperaquine in vitro responses and polymorphisms in the pfcrt, pfmdr1, pfmrp, and pfnhe genes in Plasmodium falciparum” (Antimicrob Agents Chemother, 2010)
pIC50: −log10 of the molar value.

Columns and labels:
Type in all cases: functional, organism-based
[1] = system: Plasmodium falciparum; assay: Antimalarial activity against Plasmodium falciparum FCM29 assessed as inhibition of [3H] incorporation after 48 hrs by scintillation counter
[2] = system: Plasmodium falciparum; assay: Antimalarial activity against Plasmodium falciparum IMT 10354 assessed as inhibition of [3H] incorporation after 48 hrs by scintillation counter
[3] = system: Plasmodium falciparum; assay: Antimalarial activity against Plasmodium falciparum IMT K14 assessed as inhibition of [3H] incorporation after 48 hrs by scintillation counter
[4] = system: Plasmodium falciparum; assay: Antimalarial activity against Plasmodium falciparum IMT K4 assessed as inhibition of [3H] incorporation after 48 hrs by scintillation counter
[5] = system: Plasmodium falciparum; assay: Antimalarial activity against Plasmodium falciparum IMT 8425 assessed as inhibition of [3H] incorporation after 48 hrs by scintillation counter
[6] = system: Plasmodium falciparum; assay: Antimalarial activity against Plasmodium falciparum IMT A4 assessed as inhibition of [3H] incorporation after 48 hrs by scintillation counter
[7] = system: Plasmodium falciparum; assay: Antimalarial activity against Plasmodium falciparum IMT 16332 assessed as inhibition of [3H] incorporation after 48 hrs by scintillation counter
[8] = system: Plasmodium falciparum; assay: Antimalarial activity against Plasmodium falciparum IMT 9881 assessed as inhibition of [3H] incorporation after 48 hrs by scintillation counter
[9] = system: Plasmodium falciparum; assay: Antimalarial activity against Plasmodium falciparum IMT Vol assessed as inhibition of [3H] incorporation after 48 hrs by scintillation counter
[10] = system: Plasmodium falciparum; assay: Antimalarial activity against Plasmodium falciparum IMT L1 assessed as inhibition of [3H] incorporation after 48 hrs by scintillation counter
[11] = system: Plasmodium falciparum; assay: Antimalarial activity against Plasmodium falciparum D6 assessed as inhibition of [3H] incorporation after 48 hrs by scintillation counter
[12] = system: Plasmodium falciparum; assay: Antimalarial activity against Plasmodium falciparum 3D7 harboring Ppcrt I371R mutant gene and Pfnhe-1 ms4760 microsatellite mutant assessed as incorporation of [3]H hypoxanthine after 48 hrs by scintillation counter; settings: 3D7, 48 h
[13] = system: Plasmodium falciparum; assay: Antimalarial activity against Plasmodium falciparum IMT Bres harboring Ppcrt M74I, N75E, K76T, A220S, Q271E, N326S and I356T mutant gene, Pmdr1 N86Y mutant gene and Pfmrp H191Y and S437A mutant gene assessed as incorporation of [3]H hypoxanthine after 48 hrs by scintillation counter
[14] = system: Plasmodium falciparum; assay: Antimalarial activity against Plasmodium falciparum IMT 10354 harboring Ppcrt M74I, N75E, K76T, A220S mutant gene, Pmdr1 D1246Y mutant gene assessed as incorporation of [3]H hypoxanthine after 48 hrs by scintillation counter; settings: IMT 10354, 48 h
[15] = system: Plasmodium falciparum; assay: Antimalarial activity against Plasmodium falciparum FCM29 harboring Ppcrt M74I, N75E, K76T, A220S, Q271E, N326S and I356T mutant gene, Pmdr1 N86Y mutant gene and Pfmrp H191Y and S437A mutant gene assessed as incorporation of [3]H hypoxanthine after 48 hrs by scintillation counter; settings: FCM29, 48 h
[16] = system: Plasmodium falciparum; assay: (§1) Antimalarial activity against Plasmodium falciparum IMT 8425 harboring Ppcrt I371R mutant gene and Pfnhe-1 ms4760 microsatellite mutant assessed as incorporation of [3]H hypoxanthine after 48 hrs by scintillation counter; settings: IMT 8425, 48 h
[17] = system: Plasmodium falciparum; assay: Antimalarial activity against Plasmodium falciparum IMT 9881 harboring Ppcrt I371R mutant gene assessed as incorporation of [3]H hypoxanthine after 48 hrs by scintillation counter; settings: IMT 9881, 48 h
[18] = system: Plasmodium falciparum; assay: Antimalarial activity against Plasmodium falciparum IMT 10336 assessed as inhibition of [3H] incorporation after 48 hrs by scintillation counter
[19] = system: Plasmodium falciparum; assay: Antimalarial activity against Plasmodium falciparum W2 assessed as inhibition of [3H] incorporation after 48 hrs by scintillation counter
[20] = system: Plasmodium falciparum; assay: Antimalarial activity against Plasmodium falciparum IMT Bres assessed as inhibition of [3H] incorporation after 48 hrs by scintillation counter
[21] = system: Plasmodium falciparum; assay: Antimalarial activity against Plasmodium falciparum FCR3 assessed as inhibition of [3H] incorporation after 48 hrs by scintillation counter
[22] = system: Plasmodium falciparum; assay: Antimalarial activity against Plasmodium falciparum IMT A4 harboring Ppcrt M74I, N75E, K76T, […], Q271E, N326S and I356T mutant gene, Pmdr1 Y184F, N1042D, D1246Y mutant gene assessed as incorporation of [3]H hypoxanthine after 48 hrs by scintillation counter; settings: IMT A4, 48 h
[23] = system: Plasmodium falciparum; assay: Antimalarial activity against Plasmodium falciparum HB3 assessed as inhibition of [3H] incorporation after 48 hrs by scintillation counter
[24] = system: Plasmodium falciparum; assay: Antimalarial activity against Plasmodium falciparum IMT 10500 harboring Pfcrt Q271E mutant gene and Ppcrt I371R mutant gene and Pfnhe-1 ms4760 microsatellite mutant assessed as incorporation of [3]H hypoxanthine after 48 hrs by scintillation counter; settings: IMT 10500, 48 h
[25] = system: Plasmodium falciparum; assay: as §1, with “Guy” for “8425”, “Ppcrt K76T, A220S, N326D and” for “Ppcrt”, “I371R mutant gene, Pmdr1 […], 1042D and D1246Y, mutant gene and Pfmrp H191Y and S437A” for “I371R”
[26] = system: Plasmodium falciparum; assay: Antimalarial activity against Plasmodium falciparum PA assessed as inhibition of [3H] incorporation after 48 hrs by scintillation counter
[27] = system: Plasmodium falciparum; assay: Antimalarial activity against Plasmodium falciparum IMT K4 harboring Ppcrt M74I, N75E, K76T, A220S, Q271E, N326S mutant gene, Pmdr1 S1034C, N1042D mutant gene and Pfmrp H191Y and S437A mutant gene assessed as incorporation of [3]H hypoxanthine after 48 hrs by scintillation counter; settings: IMT K4, 48 h
[28] = system: Plasmodium falciparum; assay: Antimalarial activity against Plasmodium falciparum IMT K14 harboring Ppcrt M74I, N75E, K76T, A220S, Q271E, N326S mutant gene, Pmdr1 Y184F, S1034C, N1042D, D1246Y mutant gene and Pfmrp H191Y and S437A mutant gene assessed as incorporation of [3]H hypoxanthine after 48 hrs by scintillation counter; settings: IMT K14, 48 h
[29] = system: Plasmodium falciparum; assay: Antimalarial activity against Plasmodium falciparum IMT Guy assessed as inhibition of [3H] incorporation after 48 hrs by scintillation counter
[30] = system: Plasmodium falciparum; assay: Antimalarial activity against Plasmodium falciparum IMT 16332 harboring Ppcrt M74I, N75E, K76T, A220S, Q271E mutant gene, Pmdr1 N86Y mutant gene assessed as incorporation of [3]H hypoxanthine after 48 hrs by scintillation counter; settings: IMT 16332, 48 h
[31] = system: Plasmodium falciparum; assay: Antimalarial activity against Plasmodium falciparum PA harboring Ppcrt M74I, N75E, K76T, A220S, Q271E, N326S and I356T mutant gene, Pmdr1 N86Y mutant gene and Pfmrp H191Y and S437A mutant gene assessed as incorporation of [3]H hypoxanthine after 48 hrs by scintillation counter
[32] = system: Plasmodium falciparum; assay: Antimalarial activity against Plasmodium falciparum IMT K2 assessed as inhibition of [3H] incorporation after 48 hrs by scintillation counter
[33] = system: Plasmodium falciparum; assay: Antimalarial activity against Plasmodium falciparum 106/1 harboring Ppcrt M74I, N75E, K76T, A220S, Q271E, N326S and I356T mutant gene, Pmdr1 N86Y mutant gene and Pfmrp H191Y and S437A mutant gene assessed as incorporation of [3]H hypoxanthine after 48 hrs by scintillation counter; settings: 106/1, 48 h
[34] = system: Plasmodium falciparum; assay: Antimalarial activity against Plasmodium falciparum IMT L1 harboring Ppcrt M74I, N75E, K76T, A220S, Q271E mutant gene, Pmdr1 N86Y mutant gene and Pfmrp H191Y and S437A mutant gene assessed as incorporation of [3]H hypoxanthine after 48 hrs by scintillation counter; settings: IMT L1, 48 h
[35] = system: Plasmodium falciparum; assay: Antimalarial activity against Plasmodium falciparum 3D7 assessed as inhibition of [3H] incorporation after 48 hrs by scintillation counter
[36] = system: Plasmodium falciparum; assay: Antimalarial activity against Plasmodium falciparum D6 harboring Ppcrt I371R mutant gene assessed as incorporation of [3]H hypoxanthine after 48 hrs by scintillation counter; settings: D6, 48 h
[37] = system: Plasmodium falciparum; assay: Antimalarial activity against Plasmodium falciparum W2 harboring Ppcrt M74I, N75E, K76T, A220S, Q271E, N326S and I356T mutant gene, Pmdr1 N86Y mutant gene and Pfmrp H191Y and S437A mutant gene assessed as incorporation of [3]H hypoxanthine after 48 hrs by scintillation counter; settings: W2, 48 h
[38] = system: Plasmodium falciparum; assay: Antimalarial activity against Plasmodium falciparum IMT 31 harboring Ppcrt I371R mutant gene assessed as incorporation of [3]H hypoxanthine after 48 hrs by scintillation counter; settings: IMT 31, 48 h
[39] = system: Plasmodium falciparum; assay: Antimalarial activity against Plasmodium falciparum FCR3 harboring Ppcrt M74I, N75E, K76T, A220S, Q271E, N326S and I356T mutant gene, Pmdr1 N86Y mutant gene and Pfmrp H191Y and S437A mutant gene assessed as incorporation of [3]H hypoxanthine after 48 hrs by scintillation counter; settings: FCR3, 48 h
[40] = system: Plasmodium falciparum; assay: Antimalarial activity against Plasmodium falciparum HB3 harboring Ppcrt I371R mutant gene and Pfmdr1 Y184F mutant gene assessed as incorporation of [3]H hypoxanthine after 48 hrs by scintillation counter; settings: HB3, 48 h
[41] = system: Plasmodium falciparum; assay: Antimalarial activity against Plasmodium falciparum IMT Vol harboring Ppcrt M74I, N75E, K76T, A220S, Q271E, N326S mutant gene, Pmdr1 N86Y mutant gene and Pfmrp H191Y and S437A mutant gene assessed as incorporation of [3]H hypoxanthine after 48 hrs by scintillation counter
[42] = system: Plasmodium falciparum; assay: Antimalarial activity against Plasmodium falciparum IMT 10336 harboring Pfcrt Q271E mutant gene and Ppcrt I371R mutant gene assessed as incorporation of [3]H hypoxanthine after 48 hrs by scintillation counter; settings: IMT 10336, 48 h
[43] = system: Plasmodium falciparum; assay: Antimalarial activity against Plasmodium falciparum IMT 31 assessed as inhibition of [3H] incorporation after 48 hrs by scintillation counter
[44] = system: Plasmodium falciparum; assay: Antimalarial activity against Plasmodium falciparum 106/1 assessed as inhibition of [3H] incorporation after 48 hrs by scintillation counter
[45] = system: Plasmodium falciparum; assay: Antimalarial activity against Plasmodium falciparum IMT 10500 assessed as inhibition of [3H] incorporation after 48 hrs by scintillation counter
[46] = system: Plasmodium falciparum; assay: Antimalarial activity against Plasmodium falciparum IMT K2 harboring Ppcrt M74I, N75E, K76T, A220S, Q271E, N326S mutant gene, Pmdr1 S1034C, N1042D mutant gene and Pfmrp H191Y and S437A mutant gene assessed as incorporation of [3]H hypoxanthine after 48 hrs by scintillation counter; settings: IMT K2, 48 h

Compound: C[C@H]1c2cccc(O)c2C(=O)C2=C(O)[C@]3(O)C(=O)C(C(N)=O)=C(O)[C@@H](N(C)C)[C@@H]3[C@@H](O)[C@@H]21 [DOXYCYCLINE]
- pIC50 [1]: 4.94
- pIC50 [2]: 5.34
- pIC50 [3]: 4.94
- pIC50 [4]: 4.99
- pIC50 [5]: 4.96
- pIC50 [6]: 5.04
- pIC50 [7]: 4.86
- pIC50 [8]: 5.06
- pIC50 [9]: 5.04

Compound: Clc1ccc2c(N3CCN(CCCN4CCN(c5ccnc6cc(Cl)ccc56)CC4)CC3)ccnc2c1 [PIPERAQUINE]
- pIC50 [10]: 7.33
- pIC50 [11]: 7.24
- pIC50 [12]: 7.24
- pIC50 [1]: 7.01
- pIC50 [13]: 7.34
- pIC50 [14]: 7.54
- pIC50 [15]: 7.01
- pIC50 [16]: 7.36
- pIC50 [17]: 7.25
- pIC50 [18]: 7.13
- pIC50 [2]: 7.54
- pIC50 [3]: 7.21
- pIC50 [19]: 7.28
- pIC50 [20]: 7.34
- pIC50 [4]: 7.19
- pIC50 [21]: 7.28
- pIC50 [22]: 7.12
- pIC50 [23]: 7.26
- pIC50 [24]: 7.09
- pIC50 [25]: 7.20
- pIC50 [26]: 7.10
- pIC50 [5]: 7.36
- pIC50 [27]: 7.19
- pIC50 [28]: 7.21
- pIC50 [29]: 7.20
- pIC50 [30]: 7.32
- pIC50 [31]: 7.10
- pIC50 [32]: 7.08
- pIC50 [33]: 7.16
- pIC50 [34]: 7.33
- pIC50 [35]: 7.24
- pIC50 [36]: 7.24
- pIC50 [6]: 7.12
- pIC50 [7]: 7.32
- pIC50 [37]: 7.28
- pIC50 [38]: 7.32
- pIC50 [39]: 7.28
- pIC50 [40]: 7.26
- pIC50 [41]: 7.43
- pIC50 [42]: 7.13
- pIC50 [43]: 7.32
- pIC50 [44]: 7.16
- pIC50 [45]: 7.09
- pIC50 [46]: 7.08

Compound: C=C[C@H]1CN2CC[C@H]1C[C@H]2[C@H](O)c1ccnc2ccc(OC)cc12 [QUININE]
- pIC50 [11]: 7.32
- pIC50 [2]: 6.93
- pIC50 [3]: 6.01
- pIC50 [20]: 6.22
- pIC50 [4]: 6.02
- pIC50 [5]: 6.86
- pIC50 [29]: 6.49
- pIC50 [32]: 6.22
- pIC50 [35]: 6.87
- pIC50 [7]: 6.62
- pIC50 [43]: 6.57
- pIC50 [44]: 6.87
